This passage reports GI50 and TGI results from PubChem BioAssay (NCI).

Several values for one entry are separate records, joined by “and”; a condition that tells them apart may be missing. Identical values can stand only once.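 Cells were grown in 96-well plates and exposed to each compound for 48 hours at five concentrations; endpoints were interpolated linearly between bracketing concentrations, or set to the highest concentration if not reached. Here, GI50 denotes the concentration required for 50% inhibition of growth. The concentration for full growth arrest is given as TGI.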

Among the test systems are HCT-116 colon; HOP-62 NSCLC; K-562 leukemia; KM12 colon; MCF7 breast; PC-3 prostate; SF-268 CNS; TK-10 renal; U251 CNS; UO-31 renal.
Common to all, as to test: NCI-60 cell line screen, 48 h

Turning to `CCOc1cc2ncc(C#N)c(Nc3ccc(OCc4ccccn4)c(Cl)c3)c2cc1NC(=O)/C=C/CN(C)C`, the GI50 is 0.568 µM and 0.615 µM in the assay with HCT-116 colon; 1.22 µM and 1.51 µM with HOP-62 NSCLC; 1.41 µM and 0.606 µM with K-562 leukemia; 1.52 µM and 1.98 µM in the assay on KM12 colon; 1.65 µM and 0.927 µM in the assay on MCF7 breast; 1.93 µM and 1.31 µM in the assay with PC-3 prostate. Besides, the GI50 in the assay with SF-268 CNS is 0.563 µM; in the assay on TK-10 renal it was < 0.0117 µM and 0.0127 µM; in the assay with U251 CNS, 0.899 µM and 1.37 µM; with UO-31 renal it was 0.122 µM and 0.133 µM. Moreover, the TGI is 2.08 µM and 2.05 µM with HCT-116 colon; 4.44 µM and > 7.81 µM with HOP-62 NSCLC; 3.27 µM and 3.36 µM with K-562 leukemia; 5.29 µM and > 7.34 µM in the assay with KM12 colon; 3.22 µM and > 6 µM in the assay on MCF7 breast; 8.36 µM and > 9.32 µM in the assay with PC-3 prostate. Moreover, the TGI in the assay on SF-268 CNS was over 10 µM; in the assay with U251 CNS it was 2.29 µM and > 10 µM; in the assay on UO-31 renal, 1.57 µM and 2.73 µM.
Regarding `CC1(C)[C@@H](OC(N)=O)[C@H]2O[C@H]2[C@]2(CO)[C@H]3CC[C@]4(C)[C@@H](c5ccc(=O)oc5)[C@@H](Cl)C[C@]4(O)C3=CC[C@@H]12`, the GI50 is 0.00709 µM in the assay on HCT-116 colon; 0.00432 µM in the assay with HOP-62 NSCLC; 0.00978 µM in the assay on K-562 leukemia; 0.0107 µM with KM12 colon; 0.00745 µM with MCF7 breast; 0.00803 µM in the assay on PC-3 prostate. In addition, the GI50 is 0.00457 µM in the assay on SF-268 CNS, 0.00555 µM in the assay with TK-10 renal, 0.00858 µM in the assay with U251 CNS and 0.00645 µM in the assay on UO-31 renal. The TGI with HCT-116 colon was determined as 0.0262 µM; in the assay with HOP-62 NSCLC it was 0.00847 µM; in the assay with K-562 leukemia, 0.0547 µM; with KM12 colon, 0.0445 µM; in the assay with MCF7 breast it was 0.0512 µM; in the assay on PC-3 prostate, 0.0275 µM. In addition, the TGI in the assay on SF-268 CNS is 0.00892 µM; in the assay on TK-10 renal, 0.015 µM; in the assay on U251 CNS, 0.0297 µM; in the assay with UO-31 renal, 0.0228 µM.
Take `Nc1nc(Nc2ccc(C3CCC(N4CCOCC4)CC3)cc2)nn1-c1ccccn1` (stereo not given): the GI50 with HCT-116 colon is 2.92 µM; in the assay on HOP-62 NSCLC, 3.04 µM; in the assay on K-562 leukemia it was 2.83 µM; with KM12 colon it was 0.18 µM; in the assay on MCF7 breast, 3.23 µM; in the assay on PC-3 prostate it was 5.76 µM. Also, the GI50 with SF-268 CNS is 2.93 µM; in the assay on TK-10 renal, over 21.5 µM; with U251 CNS, 5.05 µM; in the assay on UO-31 renal, 2.48 µM. Further, the TGI was 20.7 µM in the assay with HCT-116 colon; over 68.4 µM with HOP-62 NSCLC; over 100 µM in the assay on K-562 leukemia; 38 µM in the assay with KM12 colon; 35.3 µM in the assay on MCF7 breast; over 100 µM in the assay on PC-3 prostate. In addition, the TGI with SF-268 CNS is over 100 µM; with TK-10 renal, over 100 µM; in the assay with U251 CNS, over 100 µM; with UO-31 renal it was over 33.7 µM.
Take `C1CN(SSN2CCOCC2)CCO1`: the GI50 in the assay on HCT-116 colon is 20 µM; with HOP-62 NSCLC, 78.5 µM; in the assay with K-562 leukemia, 4.58 µM; in the assay with KM12 colon, 43.6 µM; in the assay with MCF7 breast, 23.3 µM; with PC-3 prostate, 25 µM. For the same compound, the GI50 with SF-268 CNS was 47.6 µM; with TK-10 renal, over 100 µM; with U251 CNS, 33.6 µM; with UO-31 renal it was 49.5 µM. For the same compound, the TGI is 40.6 µM in the assay on HCT-116 colon; over 100 µM in the assay with HOP-62 NSCLC; over 100 µM in the assay on K-562 leukemia; over 100 µM in the assay on KM12 colon; 64.4 µM in the assay on MCF7 breast; over 100 µM in the assay on PC-3 prostate. Besides, the TGI in the assay on SF-268 CNS, with TK-10 renal, in the assay on U251 CNS and in the assay on UO-31 renal was over 100 µM throughout.
Consider `COc1ccc(/C=C\c2cc(OC)c(OC)c(OC)c2)cc1OC`, for which the GI50 in the assay with HCT-116 colon was 0.0482 µM; in the assay on HOP-62 NSCLC, 0.58 µM; in the assay on K-562 leukemia, 0.0329 µM; with KM12 colon, 0.0513 µM; in the assay with SF-268 CNS it was 0.214 µM; in the assay on TK-10 renal, 23.5 µM. In addition, the GI50 with U251 CNS is 0.0975 µM; in the assay with UO-31 renal it was 0.805 µM. In addition, the TGI in the assay with HCT-116 colon is 40.4 µM and 24.4 µM; with HOP-62 NSCLC, 40.4 µM and > 100 µM; in the assay with K-562 leukemia it was 40.4 µM and 15.7 µM; in the assay on MCF7 breast, over 100 µM; with PC-3 prostate, over 100 µM; with SF-268 CNS, 40.4 µM and > 100 µM. Besides, the TGI was 40.4 µM and > 100 µM with TK-10 renal; 40.4 µM and 50.3 µM in the assay with UO-31 renal.
On to `NC(=S)N/N=C/c1ncccc1N`, for which the GI50 was 1.16 µM in the assay with HCT-116 colon; 0.739 µM with HOP-62 NSCLC; 4.82 µM with K-562 leukemia; 5.38 µM with KM12 colon; 0.32 µM in the assay with MCF7 breast; 6.5 µM in the assay on PC-3 prostate. Besides, the GI50 in the assay on SF-268 CNS was 0.731 µM; in the assay with TK-10 renal, 50.5 µM; in the assay with U251 CNS it was 0.659 µM; with UO-31 renal, 0.293 µM. Further, the TGI was over 33.7 µM in the assay on HCT-116 colon; 13.1 µM and 9.78 µM with HOP-62 NSCLC; over 93.4 µM in the assay on K-562 leukemia; over 100 µM in the assay with KM12 colon; 27.2 µM and > 10 µM in the assay on MCF7 breast; over 100 µM with PC-3 prostate. In addition, the TGI with SF-268 CNS was 51.9 µM and > 8.29 µM; in the assay on TK-10 renal it was over 100 µM; with U251 CNS, over 100 µM; with UO-31 renal, 3.69 µM and 1.41 µM.
